The text below walks through data of US8063059B2, “Use of compositions containing kappa-opioid receptor antagonists for the treatment of dissociative disorders” (Emodys GmbH, priority 2006, dated 2011).

Test [1] has as its system patient diagnosed with post traumatic stress disorders. As to the kind of experiment: Medical Application Example 1: buprenorphine in a patient with post traumatic stress disorders. It counts as in vivo, human. The note with it: one patient. How it is done:
Buprenorphine in the form of a tablet with an active ingredient content of 12 mg was administered sublingually to a patient diagnosed with post traumatic stress disorders with the corresponding psychiatric symptoms.

Test [2] has as its system patient diagnosed with emotionally unstable personality disorder. The test can be described thus: Medical Application Example 3: buprenorphine in patients with emotionally unstable personality disorder. It counts as in vivo, human. On the procedure: In medical application examples 3 and 4 buprenorphine, alone or in conjunction with a kappa-opioid receptor antagonist, is used for patients diagnosed with emotionally unstable personality disorder as a possibility for treating the personality disorder and reducing the associated social, somatic and psychiatric consequences.
Buprenorphine was administered as a mucoadhesive sachet with an active ingredient content of 12 mg to a patient diagnosed with emotionally unstable personality disorder.

Where [3] appears, read: one year following the start of treatment.

As for “2-(N-cyclopropylmethyl-4,5alpha-epoxy-3-hydroxy-6-methoxy-6,14-endoethanomorphinan-7alpha-yl)-3,3-dimethyl-2-butanol [Buprenorphine]”, in test [1] (setting [3]), the “flashback symptoms and daily life intrusions” value is on record as “significant improvement”; the “lethargy and emotional swings, intrusive dissociation sensations (patient-indicated)” value was “clear subjective improvement”. The “occurrence of flashback situations” value in test [1] (sublingual tablet, daily dosage increased from 12 mg to 16 mg) is listed as “decrease significantly”. Further, the “self-injuries after one year” value in test [2] (one patient, daily ingestion of 12 mg, after one year) is given as “complete lack of self-injuries”. Further, the self-injuring behaviour entry in test [2] (one patient, mucoadhesive sachet, 12 mg) is on record as “complete remission”. Moreover, the frequency of self-cutting entry in test [2] (two other patients) is given as “significant reduction”.
